The source of these data is patent US9434711B2 (Janssen Pharmaceutica, NV, priority 2007, dated 2016).

Where “and” joins values, the source holds several entries; their conditions need not be identical. Identical values can stand only once. Like-named read-outs stand apart in the source and are kept apart here.

Experiment [1] addresses rat TRPM8 (Rattus norvegicus (Rat), UniProt Q8R455). Kind of experiment: In Vitro Rat TRPM8 Functional Assay (Ca2+ fluorescence, icilin EC80). The class given is cell-based. The note with it: read-out: rTRPM8 IC50. On the procedure: HEK293 cells are routinely grown as monolayer in Dulbecco's minimum essential medium supplemented with 10% FBS, 1 mM L-glutamine, 100 units/mL penicillin and 100 ug/mL streptomycin. Cells are maintained in 5% CO2 at 37° C.
For functional expression of TRPM8, the full-length cDNA encoding human and rat TRPM8 are subcloned into pCI-NEO mammalian expression vectors. The expression constructs are transiently transfected into HEK293 cells according to the FuGENE 6 Transfection Reagent® (ROCHE) instructions. Within twenty-four hours, transiently transfected cells are harvested and either seeded directly into assay plate or cryopreserved for future usage. […]
Maximal fluorescence intensity (FI) achieved upon addition of icilin is exported from the FDSS and further analyzed using GraphPad Prism 3.02 (Graph Pad Software Inc., CA, U.S.A.) where data is normalized to percent of maximal response. The dose response curves from the average of quadruplicate wells for each data point are analyzed by using nonlinear regression of either sigmoidal dose response or sigmoidal dose response (variable slope). Finally, the IC50 values are calculated with the best-fit dose curve determined by Prism.

Experiment [2] concerns Male Sprague Dawley rats. Kind of experiment: Inhibition of Icilin-Induced "Wet-Dog" Shakes in Rats. It counts as in vivo, rat. The settings on record: Rattus norvegicus, po, HPbCD, Na salt form.
The test system of experiment [3] is male Sprague-Dawley rats. Put plainly: Rat Carrageenan-Induced Radiant Heat Hypersensitivity. It counts as in vivo. The settings on record: dose 30 p.o., HPbCD, Na salt form. The method, then:
Intraplantar injection of carrageenan into the hind paw of rats causes a robust acute inflammatory response characterized by reddening, swelling and hypersensitivity of the paw to thermal and mechanical stimuli typically peaking 3-6 hours following application and subsiding over the 12-24 hours.
To assess the effect of test compounds of the formula (I) on inflammatory hyperalgesia radiant heat response latencies were evaluated 3 hours following intraplantar carrageenan (Lambda, Type IV, 200 uL) injection into a single hind paw in male Sprague-Dawley rats. The test compound was administered either 2 hours prior to or 1 hour following carrageenan injection. The intent was to determine whether the compound would prevent or retard the hypersensitivity associated with this inflammogen. Baseline thermal response latencies were determined prior to any treatment and again 3 hours after carrageenan injection. Percent reversal of hyperalgesia relative to vehicle treatment (% R) was calculated for both compound treatment paradigms according to the following formula and is depicted in Table 8: % R=(Post compound latency−Post vehicle latency)/((Baseline latency−Post vehicle latency)×100%

Experiment [4] relates to Sprague-Dawley rats. Kind of experiment: CFA-Induced Paw Radiant Heat Hypersensitivity. The class given is in vivo, rat. The note with it: HPbCD, Na salt form. On the procedure: Intraplantar injection of complete Freund's adjuvant (CFA) in rodents results in a long-lasting inflammatory reaction, characterized by a pronounced hypersensitivity to both thermal and mechanical stimuli. This hypersensitivity peaks between 24-72 hours following injection and can last for several weeks. To assess whether test compounds of the formula (I) reverse established hypersensitivity, a 100 μL intraplantar injection of CFA (suspended in a 1:1 emulsion of saline and heat-killed Mycobacterium tuberculosis in mineral oil) can be injected into a single hind paw of Sprague-Dawley rats (typically males ranging from 150-350 g). This paradigm also may be conducted with a multiple dosing or a prophylactic dosing regime designed to alter the course of hyperalgesia development. This test predicts the analgesic, anti-allodynic and antihyperalgesic effect of numerous effective clinical agents, including acetaminophen, NSAIDS such as aspirin and ibuprofen, and opioids, such as morphine.
Each rat is placed in a test chamber on a warm glass surface and allowed to acclimate for approximately 10 minutes. A radiant thermal stimulus (beam of light) is then focused through the glass onto the plantar surface of each hind paw in turn. The thermal stimulus is automatically shut off by a photoelectric relay when the paw is moved or when the cut-off time is reached (20 seconds for radiant heat at […]). An initial (baseline) response latency to the thermal stimulus is recorded for each animal prior to the injection of CFA. Twenty-four hours following intraplantar CFA injection, the response latency of the animal to the thermal stimulus is then re-evaluated and compared to the animal's baseline response time. […] Immediately following the post-CFA latency assessment, test compound or vehicle (usually Solutol, hydroxypropyl methylcellulose, hydroxypropyl beta-cyclodextrin or PEG-400) is administered i.p. or p.o. to rats. Post-compound treatment withdrawal latencies are assessed at fixed time intervals, typically 30, 60 and 120 minutes. The percent reversal (% R) of hypersensitivity is calculated according to the following formula: % Reversal=(Treatment Response-CFA Response)/(Baseline Response-CFA Response)×100.

[5] abbreviates: treatment 1 hour relative to Cg.
Where [6] appears, read: treatment −2 hours relative to Cg.

rat TRPM8, sequence (Q8R455 whole entry): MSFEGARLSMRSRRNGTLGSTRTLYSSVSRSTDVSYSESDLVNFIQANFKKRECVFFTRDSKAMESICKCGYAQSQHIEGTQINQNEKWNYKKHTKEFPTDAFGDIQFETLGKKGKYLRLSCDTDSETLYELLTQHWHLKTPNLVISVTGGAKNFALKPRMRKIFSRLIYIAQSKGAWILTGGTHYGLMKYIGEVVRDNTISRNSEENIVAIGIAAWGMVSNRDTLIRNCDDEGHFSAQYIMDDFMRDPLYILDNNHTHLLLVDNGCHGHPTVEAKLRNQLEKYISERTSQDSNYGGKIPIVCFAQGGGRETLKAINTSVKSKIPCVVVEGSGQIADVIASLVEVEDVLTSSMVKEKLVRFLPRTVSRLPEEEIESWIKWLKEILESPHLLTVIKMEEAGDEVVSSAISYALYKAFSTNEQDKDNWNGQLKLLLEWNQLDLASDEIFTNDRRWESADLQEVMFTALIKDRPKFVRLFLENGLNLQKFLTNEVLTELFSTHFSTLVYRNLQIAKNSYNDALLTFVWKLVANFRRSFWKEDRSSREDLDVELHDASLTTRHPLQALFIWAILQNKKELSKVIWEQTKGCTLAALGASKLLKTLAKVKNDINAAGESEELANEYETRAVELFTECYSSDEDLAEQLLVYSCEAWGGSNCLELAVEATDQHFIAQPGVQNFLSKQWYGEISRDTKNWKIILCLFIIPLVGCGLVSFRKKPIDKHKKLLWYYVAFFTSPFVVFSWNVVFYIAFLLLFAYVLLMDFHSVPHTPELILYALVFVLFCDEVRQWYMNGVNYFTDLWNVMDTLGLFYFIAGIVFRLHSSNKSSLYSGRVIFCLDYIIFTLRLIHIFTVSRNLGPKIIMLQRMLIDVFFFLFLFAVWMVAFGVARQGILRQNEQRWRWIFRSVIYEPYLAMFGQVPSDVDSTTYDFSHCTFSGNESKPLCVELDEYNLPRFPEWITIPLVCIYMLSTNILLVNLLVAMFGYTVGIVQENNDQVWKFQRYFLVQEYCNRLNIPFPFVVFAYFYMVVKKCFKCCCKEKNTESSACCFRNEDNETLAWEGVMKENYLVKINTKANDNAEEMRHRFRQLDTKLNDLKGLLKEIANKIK

On to `Cc1c(N(Cc2ccc(F)c(C(F)(F)F)c2)S(=O)(=O)c2ccc(C(=O)O)cc2)sc2ccccc12` [Compound 306, N-(3-Methyl-benzo[b]thiophen-2-yl)-N-(4-fluoro-3-trifluoromethyl-benzyl)-4-carboxy-benzenesulfonamide], for which the IC50 (commonly the concentration that inhibits the measured activity by half) in experiment [1] (Freshly transfected cells) came to 5 nM. Besides, in experiment [2] (1 h, 60 min pre-icilin), the ED50 (commonly the dose at which the effect has come halfway, by size or by number of responders) turned out to be 2.5 mg/kg. The “Percent Reversal, relative to vehicle” value is given as 100% in experiment [3] (setting [5]) and 64% in experiment [3] (setting [6]). The “Percent Reversal” value in experiment [4] (dose 3 p.o., treatment time 100 min) was 31%; in experiment [4] (dose 5.6 p.o., treatment time 100 min), 76%; in experiment [4] (dose 10 p.o., treatment time 100 min), 91% and 93%; in experiment [4] (dose 30 p.o., treatment time 100 min) it was 59%.
`Cc1c(N(Cc2ccc(OC(F)(F)F)cc2)S(=O)(=O)c2ccc(C(=O)O)cc2)sc2ccccc12` [Compound 496, N-(3-Methyl-benzo[b]thiophen-2-yl)-N-(4-trifluoromethoxy-benzyl)-4-carboxy-benzenesulfonamide]: in experiment [1] (Cryopreserved cells), the IC50 turned out to be 1.8 nM. Also, the ED50 in experiment [2] (2 h, 120 min pre-icilin) turned out to be 2.5 mg/kg. Moreover, the entries for the “Percent Reversal, relative to vehicle” value in experiment [3] (setting [5]) and in experiment [3] (setting [6]) were 106% and 74%, respectively. Moreover, the “Percent Reversal” value in experiment [4] (dose 1 p.o., treatment time 60 min) is recorded as 9%; in experiment [4] (dose 3 p.o., treatment time 60 min), −10%; in experiment [4] (dose 5.6 p.o., treatment time 60 min) it was 10%; in experiment [4] (dose 30 p.o., treatment time 60 min), 30%.
